Experimental data: US10456465B2, “Compositions, kits, and methods for the diagnosis prognosis, monitoring, treatment and modulation of post-transplant lymphoproliferative disorders and hypoxia associated angiogenesis disorders using galectin-1” (Dana-Farber Cancer Institute, Inc., priority 2009, dated 2019)

What was measured:
[1] = tested on: KS cells; test: Gal1 expression and secretion by KS cells (hypoxia/normoxia); format: cell-based, human; details: for IκB-α degradation: hypoxia; for hypoxia-driven Gal1 expression and secretion: hypoxia (1% O2)
[2] = biological target: T1, Gal1 (Homo sapiens, UniProt P09382); test: Binding of 488-Gal1 to HUVEC; details: lactose/sucrose 30 mM, swainsonine 3 μM, benzyl-α-GalNAc 2 mM, mAb 0.5 μM
T1 construct: made in house
Experimental: For glycophenotyping, ECs were incubated with biotinylated L-PHA, LEL, SNA, MAL II, PNA and HPA (all from Vector). Recombinant Gal1 was purified as described in Ilarregui et al. (2009) Nat Immunol 10, 981-991. For binding assays, ECs were incubated for 1 h at 4° C. with dyLight 488-labeled galectins in the absence or presence of lactose, sucrose, anti-Gal1 or isotype control mAb or following transfection with GnT5, GCNT1 or scrambled siRNA. Cells were analyzed on a FACSAria (BD Biosciences). For segregation, ECs were treated with Gal1 for 1 h, fixed and incubated for 1 h with anti-human VEGFR2 antibody (55B11; Cell Signaling) as described in Ilarregui et al. (2009) Nat Immunol 10, 981-991. Cells were analyzed on a Nikon laser confocal microscope (Eclipse E800).
DyLight 488-conjugated Gal1 (488-Gal1) was obtained using DyLight labeling kit (Thermo Scientific). Inhibitors of Jak2-STAT3 (AG490; 5 μM), Jnk-SAP (SP600125; 20 μM), p38 (SB202190; 10 μM), HIF-1α (3 μM) and O-glycosylation (benzyl-α-Ga1NAc; 2 mM) were from Calbiochem. Inhibitors of Erk1/2 (U0126; 5 μM), PI(3)K-Akt (Ly294002; 2 μM) and NF-κB (BAY 11-7082; 1 μM), ROS (N-acetyl-cysteine; NAC), N-glycosylation (swainsonine; 3 μM), lactose or sucrose (30 mM) were from Sigma. PNGase F (25 U/μg protein) was from New England Biolabs. Recombinant cytokines including IL-10 (50 ng/ml), IL-17 (5 ng/ml), TGF-β1 (3 ng/ml), IFN-γ (50 ng/ml), VEGF (20 ng/ml), bFGF (10 ng/ml) were from R&D. TNF (20 ng/ml) was from Sigma. Biotinylated lectins, including L-PHA (2 μg/ml), LEL (1 μg/ml), SNA (5 μg/ml), MAL II (10 μg/ml), PNA (10 μg/ml) and HPA (10 μg/ml) were purchased from Vector Labs and incubated in buffer containing 150 mM NaCl, 10 mM HEPES and 1% BSA (Sigma). ON-TARGETplus SMART siRNA pools against GnT5, GCNT1, VEGFR2, NRP-1, VEGF, HIF-1α and scrambled were obtained from Dharmacon. Transfections were performed by Lipofectamine-RNAiMAX (Invitrogen) following manufacturer's directions. Recombinant Gal3 and Gal8 were purified as described in Acosta-Rodriguez et al. (2004) J Immunol 172, 493-502 and Cardenas Delgado et al. (2010) FASEB J [Epub ahead of print].

[3] = tested on: HUVEC; test: HUVEC migration (transwell); format: cell-based, human; details: induced by Gal1
Experimental: (§1) HUVEC transfected or not with specific siRNA or pre-incubated with signaling pathway inhibitors were exposed to VEGF or Gal1 with or without lactose, sucrose, 8F4F8G7 mAb or control isotype (IgG1κ) or specific antibodies for VEGFR1 (AP-MAB0702; Abcam), VEGFR2 (AF357; R&D), VEGFR3 (AB89501; Abcam) or VEGF (MAB293; R&D). Cells were processed for proliferation, migration, invasion and tube formation assays. Tumor-associated blood vessels were identified by flow cytometry using Alexa Fluor 647-conjugated anti-CD34 antibody (RAM34; eBioscience).
(§2) The formation of capillary-like tubular structures was assessed in Matrigel-coated plates essentially as described in Albini et al. (2001), Cancer Res 61, 8171-8178. In brief, HUVEC (3×10^4 cells/ml) transfected or not with specific siRNA or pre-incubated with signaling pathway inhibitors were seeded on Matrigel with our without Gal1 (0.1 to 3 μM) or VEGF (20 ng/ml) with or without lactose, sucrose, 8F4F8G7 mAb (0.5 μM) or isotype control (IgG1K) or blocking antibodies specific for VEGFR1 (5 μg/ml), VEGFR2 (2 μg/ml), VEGFR3 (10 μg/ml) or VEGF (10 μg/ml). Cells were incubated at 37° C. for periods ranging from 0 to 24 h and were visualized by phase-contrast microscopy. In another set of experiments, conditioned medium from hypoxic or normoxic KS cells infected or not with a retroviral vector containing Gal1 shRNA was assessed on HUVEC transfected or not with GnT5, GCNT1 or scr siRNA (100 nM). Capillary-like tubular structures were scored by counting the number of tubules (closed areas) per well in a phase-contrast microscope (Nikon E-100). For migration assays, HUVEC (4×10^4/well) transfected or not with specific siRNA were resuspended in M199 medium supplemented with 1% FCS. Cells were placed into the top chamber of the insert while the bottom well was filled with Gal1 or VEGF in the absence or presence of lactose, sucrose, 8F4F8G7 mAb or isotype control. After 24 hours, inserts were stained with crystal violet (Sigma) and analyzed in an inverted microscope. For each filter, 4 images were collected and cells were counted with the ImageJ software v1.34 (NIH).

[4] = tested on: mice (Matrigel plugs); test: In vivo vascularization of Matrigel sponges; design: species or system mouse; details: lactose 30 mM
Experimental: Invasion assays were performed using the BioCoat Angiogenesis system (BD Biosciences) following manufacturer's recommendations. For assessment of in vivo angiogenesis, growth factor-reduced Matrigel (BD Biosciences) was mixed with Gal1 (0.1 or 3 μM) with or without lactose (30 mM). In another set of experiments, serum-free CM from KS cells infected or not with a retroviral vector expressing Gal1 shRNA and cultured under hypoxic or normoxic conditions, were added to unpolymerized Matrigel and injected subcutaneously into the flanks of either wild-type or Lgals1^−/− (B6) mice or nude mice using a cold syringe. Matrigel embedded with buffer alone was used as negative control and a cocktail containing VEGF (50 ng/ml), heparin (50 U/ml) and TNF (2 ng/ml) was used as positive control. After 6 days, Matrigel plugs were collected by surgery, photographed and weighed. Samples were minced and diluted in water to measure hemoglobin content using the Drabkin reagent kit (Sigma). Each sample was normalized to 100 mg of recovered gel and confronted with a standard curve of mouse blood hemoglobin.

[5] = tested on: HUVEC; test: HUVEC capillary tube formation on Matrigel; format: cell-based, human; details: induced by Gal1
Experimental: as §1, §2

[6] = tested on: HUVEC; test: HUVEC proliferation ([3H]thymidine incorporation); format: cell-based, human; details: induced by Gal1
Experimental: as §1
For proliferation assays, HUVEC that were transfected or not with specific siRNA and cultured in complete M199 medium were trypsinized, harvested and seeded in 96-well microtiter plates (1×10^3 cells/well). Cells were pre-incubated for 1 hour at 37° C. with lactose, sucrose or signaling pathway inhibitors and then exposed to Gal1. After 24 hours, cells were incubated for an additional 24 hours in the presence of 0.8 μCi [^3H]-thymidine (NEN Dupont). Cells were then harvested and radioactivity was measured in a 1414 Liquid Scintillation Counter (Perkin Elmer).

T1 sequence (P09382 whole entry): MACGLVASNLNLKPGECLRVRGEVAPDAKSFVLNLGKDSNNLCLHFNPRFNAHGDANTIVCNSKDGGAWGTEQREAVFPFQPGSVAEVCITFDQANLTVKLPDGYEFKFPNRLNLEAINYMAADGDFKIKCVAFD

In the case of Cc1ccc(S(=O)(=O)/C=C/C#N)cc1 [BAY-117802], the IκB-α degradation ([1]; KS cells) is reported as “prevented” and the “hypoxia-driven Gal1 expression and secretion” value ([1]; KS cells) is reported as “completely eliminated”.
For [Cl-].[Cl-].[Co+2] [CoCl2], the Gal1 expression [1] was “no effect”.
OO [H2O2] was tested, and the “secretion of Gal1” value ([1]; KS cells, exogenous administration) was “stimulated”.
CC(=O)N[C@@H](CS)C(=O)O [N-acetyl-cysteine] was tested, and the IκB-α degradation ([1]; KS cells) was “prevented” and the “hypoxia-driven Gal1 expression and secretion” value ([1]; KS cells) was “strongly inhibited”.
In the case of CC(=O)N[C@H]1[C@@H](OCc2ccccc2)O[C@H](CO)[C@H](O)[C@@H]1O [benzyl-α-Ga1NAc], the “effect on binding of Gal1 to ECs” value [2] is reported as “only partially inhibitory”.
In the case of OC[C@H]1O[C@@H](O[C@H]2[C@H](O)[C@@H](O)C(O)O[C@@H]2CO)[C@H](O)[C@@H](O)[C@H]1O (some centres unmarked) [lactose, reference compound], the “effect on Gal1-induced EC migration” value [3] is reported as “completely prevented”, the “effect on Gal1-induced vascularization of Matrigel sponges” value [4] is reported as “specifically inhibited” and the “effect on binding of Gal1 to ECs” value [2] is reported as “prevented”. For the same molecule, the “effect on Gal1-induced capillary tube formation” value [5] was “completely prevented” and the “effect on Gal1-induced EC proliferation” value [6] was “completely prevented”.
In the case of OC[C@H]1O[C@@](CO)(O[C@H]2O[C@H](CO)[C@@H](O)[C@H](O)[C@H]2O)[C@@H](O)[C@@H]1O [sucrose], the “effect on binding of Gal1 to ECs” value [2] is reported as “not”.
With O[C@H]1[C@H]2[C@H](O)CCCN2C[C@H]1O [swainsonine] the “effect on binding of Gal1 to ECs” value [2] was “almost completely abrogated”.
